Active and inactive are the calls of the source. The calls are words filed in the database; no cut-off is given here.
Assays:
[1] = molecular target: Phosphatidylinositol 4,5-bisphosphate 3-kinase catalytic subunit beta isoform (Homo sapiens, UniProt P42338); assay: Inhibition of PI3Kbeta (unknown origin) using PIP2 as substrate incubated for 1 hrs in presence of ATP by ADP-Glo kinase assay
Histone deacetylase 4 = Histone deacetylase 4 (Homo sapiens, UniProt P56524); assay: Inhibition of HDAC4 (unknown origin) using Boc-Lys(acetyl)-AMC as substrate preincubated for 1 hrs followed by substrate addition and measured after 2 hrs by spectrophotometer based fluorometric assay
Histone deacetylase 5 = Histone deacetylase 5 (Homo sapiens, UniProt Q9UQL6); assay: Inhibition of HDAC5 (unknown origin) using Boc-Lys(acetyl)-AMC as substrate preincubated for 1 hrs followed by substrate addition and measured after 2 hrs by spectrophotometer based fluorometric assay
Chain of Histone deacetylase 5 (Q9UQL6 whole entry): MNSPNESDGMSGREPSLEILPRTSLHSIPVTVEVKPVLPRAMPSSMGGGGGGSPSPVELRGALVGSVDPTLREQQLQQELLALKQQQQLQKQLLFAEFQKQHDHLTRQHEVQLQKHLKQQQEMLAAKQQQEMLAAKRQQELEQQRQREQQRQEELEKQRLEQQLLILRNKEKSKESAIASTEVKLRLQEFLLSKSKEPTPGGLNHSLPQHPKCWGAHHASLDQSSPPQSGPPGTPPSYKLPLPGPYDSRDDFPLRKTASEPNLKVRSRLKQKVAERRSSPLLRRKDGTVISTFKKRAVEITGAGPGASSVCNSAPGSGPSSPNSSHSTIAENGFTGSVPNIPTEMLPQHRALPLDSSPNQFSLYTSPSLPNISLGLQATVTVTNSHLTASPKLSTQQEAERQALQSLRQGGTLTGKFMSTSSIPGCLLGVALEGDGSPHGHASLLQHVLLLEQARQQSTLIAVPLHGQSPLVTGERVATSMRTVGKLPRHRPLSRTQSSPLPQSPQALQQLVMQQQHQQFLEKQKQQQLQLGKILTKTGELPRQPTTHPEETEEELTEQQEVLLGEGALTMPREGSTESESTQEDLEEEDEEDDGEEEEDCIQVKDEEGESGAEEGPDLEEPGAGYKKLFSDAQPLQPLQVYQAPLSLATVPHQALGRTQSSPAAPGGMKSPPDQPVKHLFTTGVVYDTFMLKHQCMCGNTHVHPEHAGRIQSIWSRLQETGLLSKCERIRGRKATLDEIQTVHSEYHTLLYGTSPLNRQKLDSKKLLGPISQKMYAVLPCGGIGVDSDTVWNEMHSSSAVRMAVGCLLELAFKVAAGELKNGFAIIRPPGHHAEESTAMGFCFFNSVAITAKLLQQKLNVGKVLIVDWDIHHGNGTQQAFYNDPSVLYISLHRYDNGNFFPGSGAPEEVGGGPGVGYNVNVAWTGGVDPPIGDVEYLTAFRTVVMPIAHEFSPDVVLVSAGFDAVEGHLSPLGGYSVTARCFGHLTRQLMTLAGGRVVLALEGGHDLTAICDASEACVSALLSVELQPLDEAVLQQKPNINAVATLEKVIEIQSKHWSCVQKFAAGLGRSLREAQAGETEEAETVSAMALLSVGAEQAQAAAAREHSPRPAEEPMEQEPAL

[2] = molecular target: Protein deacetylase HDAC6 (Homo sapiens, UniProt Q9UBN7); assay: Inhibition of HDAC6 (unknown origin) using Boc-Lys(acetyl)-AMC as substrate preincubated for 1 hrs followed by substrate addition and measured after 2 hrs by spectrophotometer based fluorometric assay
Histone deacetylase 8 = Histone deacetylase 8 (Homo sapiens, UniProt Q9BY41); assay: Inhibition of HDAC8 (unknown origin) using Boc-Lys(acetyl)-AMC as substrate preincubated for 1 hrs followed by substrate addition and measured after 2 hrs by spectrophotometer based fluorometric assay
Chain of Histone deacetylase 8 (Q9BY41 whole entry): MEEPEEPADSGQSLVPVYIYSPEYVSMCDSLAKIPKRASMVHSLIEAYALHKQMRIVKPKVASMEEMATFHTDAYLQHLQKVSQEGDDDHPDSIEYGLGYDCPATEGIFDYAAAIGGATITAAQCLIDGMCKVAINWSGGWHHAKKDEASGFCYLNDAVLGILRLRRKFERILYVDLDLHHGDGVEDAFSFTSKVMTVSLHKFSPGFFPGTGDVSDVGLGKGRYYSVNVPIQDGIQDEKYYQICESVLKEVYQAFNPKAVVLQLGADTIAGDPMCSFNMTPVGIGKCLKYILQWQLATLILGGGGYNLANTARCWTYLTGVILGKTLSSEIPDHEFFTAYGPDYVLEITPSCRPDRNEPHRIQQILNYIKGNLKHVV

Histone deacetylase 9 = Histone deacetylase 9 (Homo sapiens, UniProt Q9UKV0); assay: Inhibition of HDAC9 (unknown origin) using Boc-Lys(acetyl)-AMC as substrate preincubated for 1 hrs followed by substrate addition and measured after 2 hrs by spectrophotometer based fluorometric assay
Chain of Histone deacetylase 9 (Q9UKV0 whole entry): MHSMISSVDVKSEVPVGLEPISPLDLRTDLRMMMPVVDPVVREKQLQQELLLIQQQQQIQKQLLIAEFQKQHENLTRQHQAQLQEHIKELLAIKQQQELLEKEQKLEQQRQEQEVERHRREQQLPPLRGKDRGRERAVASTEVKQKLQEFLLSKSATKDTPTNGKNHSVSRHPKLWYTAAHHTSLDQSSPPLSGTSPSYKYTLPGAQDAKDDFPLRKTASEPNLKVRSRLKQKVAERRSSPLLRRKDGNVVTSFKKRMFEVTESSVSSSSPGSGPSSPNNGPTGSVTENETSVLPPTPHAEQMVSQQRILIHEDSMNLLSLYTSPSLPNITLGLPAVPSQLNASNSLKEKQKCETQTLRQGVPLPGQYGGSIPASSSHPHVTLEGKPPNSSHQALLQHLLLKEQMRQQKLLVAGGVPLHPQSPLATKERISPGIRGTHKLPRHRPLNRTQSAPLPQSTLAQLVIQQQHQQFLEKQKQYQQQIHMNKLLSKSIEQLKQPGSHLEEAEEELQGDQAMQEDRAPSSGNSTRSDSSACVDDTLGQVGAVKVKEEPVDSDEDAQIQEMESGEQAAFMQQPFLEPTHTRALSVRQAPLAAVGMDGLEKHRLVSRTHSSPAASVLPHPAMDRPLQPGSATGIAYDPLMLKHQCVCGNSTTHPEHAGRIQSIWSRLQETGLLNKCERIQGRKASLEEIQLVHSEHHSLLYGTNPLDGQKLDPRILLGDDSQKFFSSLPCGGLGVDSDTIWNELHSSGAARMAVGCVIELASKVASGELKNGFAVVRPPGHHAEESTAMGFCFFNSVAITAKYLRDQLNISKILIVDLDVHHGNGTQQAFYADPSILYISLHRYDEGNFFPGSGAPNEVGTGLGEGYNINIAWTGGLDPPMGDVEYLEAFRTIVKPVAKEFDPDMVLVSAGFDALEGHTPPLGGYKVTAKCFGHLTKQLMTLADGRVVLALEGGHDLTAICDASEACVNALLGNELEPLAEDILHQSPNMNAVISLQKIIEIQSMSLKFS

Histone deacetylase 11 = Histone deacetylase 11 (Homo sapiens, UniProt Q96DB2); assay: Inhibition of HDAC11 (unknown origin) using Boc-Lys(acetyl)-AMC as substrate preincubated for 1 hrs followed by substrate addition and measured after 2 hrs by spectrophotometer based fluorometric assay
Chain of Histone deacetylase 11 (Q96DB2 whole entry, canonical isoform): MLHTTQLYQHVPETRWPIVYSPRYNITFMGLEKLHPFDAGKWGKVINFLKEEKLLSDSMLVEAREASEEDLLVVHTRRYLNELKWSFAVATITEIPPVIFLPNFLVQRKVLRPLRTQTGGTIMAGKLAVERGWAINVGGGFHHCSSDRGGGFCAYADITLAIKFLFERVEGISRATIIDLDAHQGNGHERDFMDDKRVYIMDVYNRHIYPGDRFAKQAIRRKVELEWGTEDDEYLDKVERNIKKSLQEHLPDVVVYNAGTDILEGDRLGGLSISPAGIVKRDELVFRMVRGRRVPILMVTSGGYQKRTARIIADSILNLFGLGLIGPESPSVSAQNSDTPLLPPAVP

[3] = molecular target: Phosphatidylinositol 4,5-bisphosphate 3-kinase catalytic subunit delta isoform (Homo sapiens, UniProt O00329); assay: Inhibition of PI3Kdelta (unknown origin) using PIP2 as substrate incubated for 1 hrs in presence of ATP by ADP-Glo kinase assay
JeKo-1 [4] = assay: Antiproliferative activity against human JeKo-1 cells incubated for 48 hrs by resazurin dye based fluorescence micro plate reader analysis; type: functional, cell-based; details: JeKo-1, 48 h
HL-60 = assay: Antiproliferative activity against human HL-60 cells incubated for 48 hrs by resazurin dye based fluorescence micro plate reader analysis; type: functional, cell-based; details: HL-60, 48 h
[5] = Cytotoxicity against human HL7702 cells incubated for 48 hrs by resazurin dye based fluorescence micro plate reader analysis; type: toxicity, cell-based; details: HL7702 (L02) cells
JeKo-1 [6] = assay: Potency index, ratio of CI994 IC50 to test compound IC50 for antiproliferative activity against human JeKo-1 cells incubated for 48 hrs by resazurin based fluorescence microplate reader analysis; type: functional
CYP2D6 = CYP2D6 (Homo sapiens, UniProt P10635); assay: Inhibition of CYP2D6 in human liver microsomes using bufuralol as substrate at 10 uM in presence of NADPH regenerating system by LC-MS/MS analysis relative to control; type: ADME, Microsome; details: probe bufuralol
Chain of CYP2D6 (P10635 whole entry): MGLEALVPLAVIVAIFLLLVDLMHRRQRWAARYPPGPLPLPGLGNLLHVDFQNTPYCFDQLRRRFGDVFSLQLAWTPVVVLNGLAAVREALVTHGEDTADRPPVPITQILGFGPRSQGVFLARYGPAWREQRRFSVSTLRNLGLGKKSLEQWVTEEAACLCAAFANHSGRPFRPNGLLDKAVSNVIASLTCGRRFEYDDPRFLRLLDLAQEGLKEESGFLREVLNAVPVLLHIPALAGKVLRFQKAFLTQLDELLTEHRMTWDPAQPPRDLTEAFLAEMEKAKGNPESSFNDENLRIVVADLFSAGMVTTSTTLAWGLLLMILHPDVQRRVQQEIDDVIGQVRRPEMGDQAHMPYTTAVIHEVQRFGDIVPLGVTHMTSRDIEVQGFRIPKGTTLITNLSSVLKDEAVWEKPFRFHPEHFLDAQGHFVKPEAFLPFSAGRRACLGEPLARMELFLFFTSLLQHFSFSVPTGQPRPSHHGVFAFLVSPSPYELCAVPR

[7] = Stability in human liver microsomes assessed as compound remaining at […] preincubated for 5 mins followed by NADPH addition and measured after 30 mins by LC-MS/MS analysis; type: ADME, Microsome; details: time 35 min, read-out: Stability
[8] = Stability in human liver microsomes assessed as compound remaining at […] preincubated for 5 mins followed by NADPH addition and measured after 45 mins by LC-MS/MS analysis; type: ADME, Microsome; details: time 50 min, read-out: Stability
[9] = Stability in rat liver microsomes assessed as compound remaining at 0.5 mM preincubated for 5 mins followed by NADPH addition and measured immediately by LC-MS/MS analysis; type: ADME, Microsome; details: read-out: Stability
[10] = Stability in rat liver microsomes assessed as compound remaining at 0.5 mM preincubated for 5 mins followed by NADPH addition and measured after 45 mins by LC-MS/MS analysis; type: ADME, Microsome; details: time 50 min, read-out: Stability
[11] = Stability in mouse liver microsomes assessed as compound remaining at […] preincubated for 5 mins followed by NADPH addition and measured after 5 mins by LC-MS/MS analysis; type: ADME, Microsome; details: time 10 min, read-out: Stability
[12] = Stability in mouse liver microsomes assessed as half-life at […] preincubated for 5 mins followed by NADPH addition and measured upto 45 mins by LC-MS/MS analysis; type: ADME, Microsome; details: time < 50 min
[13] = C0 in ICR mouse at 1 mg/kg, iv measured after 24 hrs by LC-MS/MS analysis; type: ADME, organism-based; details: in vivo
[14] = Half-life in ICR mouse at 1 mg/kg, iv measured after 24 hrs by LC-MS/MS analysis; type: ADME, organism-based; details: in vivo
[15] = AUC (0 to infinity) in ICR mouse at 1 mg/kg, iv measured after 24 hrs by LC-MS/MS analysis; type: ADME, organism-based; details: in vivo
[16] = Volume of distribution at steady state in ICR mouse at 1 mg/kg, iv measured after 24 hrs by LC-MS/MS analysis; type: ADME, organism-based; details: in vivo
JeKo-1 [17] = assay: Induction of apoptosis in human JeKo-1 cells assessed as necrotic cells at 0.25 uM incubated for 48 hrs by Annexin-V/FITC and PI staining based flow cytometric analysis (reference value: 1.05%); type: functional
JeKo-1 [18] = assay: Induction of apoptosis in human JeKo-1 cells assessed as viable cells at 0.5 uM incubated for 48 hrs by Annexin-V/FITC and PI staining based flow cytometric analysis (reference value: 94.1%); type: functional; details: read-out: Activity
JeKo-1 [19] = assay: Induction of apoptosis in human JeKo-1 cells assessed as late apoptotic cells at 0.5 uM incubated for 48 hrs by Annexin-V/FITC and PI staining based flow cytometric analysis (reference value: 3.66%); type: functional
JeKo-1 [20] = assay: Induction of apoptosis in human JeKo-1 cells assessed as viable cells at 1 uM incubated for 48 hrs by Annexin-V/FITC and PI staining based flow cytometric analysis (reference value: 94.1%); type: functional; details: read-out: Activity
JeKo-1 [21] = assay: Induction of apoptosis in human JeKo-1 cells assessed as early apoptotic cells at 1 uM incubated for 48 hrs by Annexin-V/FITC and PI staining based flow cytometric analysis (reference value: […]); type: functional
JeKo-1 [22] = assay: Induction of apoptosis in human JeKo-1 cells assessed as late apoptotic cells at 1 uM incubated for 48 hrs by Annexin-V/FITC and PI staining based flow cytometric analysis (reference value: 3.66%); type: functional
[23] = Inhibition of PI3K/AKT/mTOR signaling in human JeKo-1 cells assessed as decrease in AKT phosphorylation at S473 residue at 0.25 uM incubated for 24 hrs by Western blot analysis; type: cell-based
JeKo-1 [24] = assay: Effect on total AKT protein level in human JeKo-1 cells at 0.25 uM incubated for 24 hrs by Western blot analysis; type: functional, cell-based
JeKo-1 [25] = assay: Inhibition of class 1 HDAC in human JeKo-1 cells assessed as increase in histone H3 acetylation incubated for 24 hrs by Western blot analysis; type: cell-based; details: dose 0.25-1 µM
JeKo-1 [26] = assay: Upregulation of tubulin acetylation in human JeKo-1 cells at 0.25 to 1 uM incubated for 24 hrs by Western blot analysis; type: functional, cell-based; details: dose 0.25-1 µM

Chain of Phosphatidylinositol 4,5-bisphosphate 3-kinase catalytic subunit beta isoform (P42338 whole entry, canonical isoform): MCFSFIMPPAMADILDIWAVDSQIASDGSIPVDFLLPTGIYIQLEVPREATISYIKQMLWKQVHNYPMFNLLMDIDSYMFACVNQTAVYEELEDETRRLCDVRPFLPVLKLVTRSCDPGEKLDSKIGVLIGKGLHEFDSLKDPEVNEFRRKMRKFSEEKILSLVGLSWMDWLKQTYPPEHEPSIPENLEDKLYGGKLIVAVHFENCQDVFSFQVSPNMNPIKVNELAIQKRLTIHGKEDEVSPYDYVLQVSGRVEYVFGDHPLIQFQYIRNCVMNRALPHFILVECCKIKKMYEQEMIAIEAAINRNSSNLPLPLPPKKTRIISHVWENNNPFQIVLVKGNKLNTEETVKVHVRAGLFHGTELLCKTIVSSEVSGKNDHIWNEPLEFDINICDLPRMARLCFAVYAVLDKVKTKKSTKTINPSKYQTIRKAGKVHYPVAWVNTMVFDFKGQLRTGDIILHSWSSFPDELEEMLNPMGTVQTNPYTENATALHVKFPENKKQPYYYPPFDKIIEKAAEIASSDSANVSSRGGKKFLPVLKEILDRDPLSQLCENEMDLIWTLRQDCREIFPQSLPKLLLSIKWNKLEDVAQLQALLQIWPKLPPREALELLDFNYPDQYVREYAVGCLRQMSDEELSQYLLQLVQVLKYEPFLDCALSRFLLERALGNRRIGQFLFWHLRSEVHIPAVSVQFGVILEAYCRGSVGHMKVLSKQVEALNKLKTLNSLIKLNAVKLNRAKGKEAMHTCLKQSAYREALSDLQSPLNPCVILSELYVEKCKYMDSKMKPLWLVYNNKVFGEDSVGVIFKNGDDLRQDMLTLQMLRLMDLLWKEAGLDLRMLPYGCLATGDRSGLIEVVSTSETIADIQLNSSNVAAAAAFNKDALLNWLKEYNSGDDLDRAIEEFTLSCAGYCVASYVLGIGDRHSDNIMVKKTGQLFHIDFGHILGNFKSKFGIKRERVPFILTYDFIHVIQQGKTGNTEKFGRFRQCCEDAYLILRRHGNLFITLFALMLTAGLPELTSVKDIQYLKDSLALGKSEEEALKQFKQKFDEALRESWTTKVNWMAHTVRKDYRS

IC50 [1]: 29.5 nM
IC50 (Histone deacetylase 4): > 10000 nM
IC50 (Histone deacetylase 5): > 10000 nM
IC50 [2]: > 10000 nM
IC50 (Histone deacetylase 8): > 10000 nM
IC50 (Histone deacetylase 9): > 10000 nM
IC50 (Histone deacetylase 11): > 10000 nM
IC50 [3]: 206 nM
IC50 (HL-60): 900 nM
inhibition at 10 µM (CYP2D6): 48.8%
remaining at 0.5 h [7]: 46.9%
remaining at 0.75 h [8]: 35.8%
remaining at 0 min [9]: 100%
remaining at 0.75 h [10]: 40.2%
remaining at 5 min [11]: 94%
half-life [12]: 0.449 h
C0 at 24 h [13]: 13700 ng/mL
half-life [14]: 10 h
AUC(0-inf) [15]: 2770 ng·h/mL
Vdss [16]: 0.719 L/kg
Compound: COc1nc(-c2ccc(NC(=O)Nc3ccc(C(=O)NCCCCCC(=O)Nc4ccccc4N)cc3)cc2)nc(N2CCOCC2)n1
IC50 (JeKo-1 [4]): 500 nM
IC50 at 48 h [5]: > 100000 nM
Ratio IC50 (JeKo-1 [6]): 2
Activity (JeKo-1 [17]): 0.85%
viability at 0.5 µM (JeKo-1 [18]): 48.8%
Activity (JeKo-1 [19]): 32.9%
viability at 1 µM (JeKo-1 [20]): 3.29%
Activity (JeKo-1 [21]): 26.1%
Activity (JeKo-1 [22]): 70.4%
inhibition [23]: Active
Activity (JeKo-1 [24]): inactive
inhibition (JeKo-1 [25]): Dose-Dependent Effect
Activity (JeKo-1 [26]): inactive

From ChEMBL document CHEMBL5634161, “Discovery of benzamide-based PI3K/HDAC dual inhibitors with marked pro-apoptosis activity in lymphoma cells” (Eur J Med Chem, 2023)
